# Experimental data taken from BindingDB's records for doi:10.3109/14756360903179401 (Universidad Nacional Autonoma De Mexico, 2010).
# Molecular target: T1, cDNA, FLJ78895, highly similar to 3-oxo-5-alpha-steroid 4-dehydrogenase 1 (Homo sapiens, UniProt B7Z4L2)
# T1 sequence (B7Z4L2 whole entry): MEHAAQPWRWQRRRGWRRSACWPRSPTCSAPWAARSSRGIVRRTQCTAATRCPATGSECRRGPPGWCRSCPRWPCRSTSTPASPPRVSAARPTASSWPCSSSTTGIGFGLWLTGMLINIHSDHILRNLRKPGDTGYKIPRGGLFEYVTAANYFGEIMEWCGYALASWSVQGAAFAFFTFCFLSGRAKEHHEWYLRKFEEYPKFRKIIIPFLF
# Experiment: 5α-Reductase Activity Assay
# Conditions: pH 6.5; 37 °C
# Protocol: The reaction mixture contained a final volume of 1 mL: 1 mM dithiothreitol, sodium phosphate buffer 40 mM, at pH 6.5 for human prostate, 2 mM NADPH, 2 nM [1,2,6,7-3H]T [Cabeza et al., Steroids 60:630-5]. The reaction in duplicate was started when it was added to the enzymatic fraction (500 μg protein in a volume of 80 μL) incubated at 37°C for 60 min [Hirosumi et al., J. Steroid Biochem. Mol. Biol., 52:357-63] and stopped by mixing with 1 mL of dichloromethane; this was considered as the end point. Incubation without tissue was used as a control. The mixture (incubation medium/dichloromethane) was agitated on a vortex for 1 min and the dichloromethane phase was separated and placed in another tube. This procedure was repeated four more times. The dichloromethane extract was evaporated to dryness under a nitrogen stream and suspended in […] that was spotted on high-performance thin layer chromatography (HPTLC) Keiselgel 60 F254 plates. T and DHT were used as carriers, and were applied in different lanes on both lateral sides of the plates (T, T + DHT, and DHT). The plates were developed in chloroform-acetone, 9:1, and were air-dried; the chromatography was repeated twice more. The steroid carriers were detected using phosphomolybdic acid reagent (DHT) and with an ultraviolet (UV) lamp (254 nm) (T). After the plates were segmented into pieces of 1 cm each, these were cut off and the strips soaked in 5 mL of Ultima Gold (Packard). The radioactivity was determined in a scintillation counter (Packard Tri-Carb 2100 TR). The radioactivity content in the segment corresponding to T and DHT carriers was identified. Radioactivity with identical chromatographic behavior to the DHT standard was considered as the DHT transformation.
row,Structure (SMILES),IC50
1,"CC(=O)O[C@]1(C(C)=O)CCC2C3C=CC4=CC(=O)CC[C@]4(C)C3CC[C@@]21C (stereo partly drawn) [3,20-Dioxopregna-4,6-dien-17α-yl acetate (7)]",70 nM
2,CC(C)(C)NC(=O)C1CCC2C3CCC4NC(=O)C=C[C@]4(C)C3CC[C@]12C (stereo not given in full) [Finasteride (3)],8.5 nM
3,"CC(=O)O[C@]1(C(C)=O)CCC2C3C(CC[C@@]21C)[C@@]1(C)CCC(=O)C=C1[C@H]1O[C@@H]31 (stereo partly drawn) [3,20-Dioxo-6,7-epoxypregn-4-ene-7α-yl acetate (8)]",22 nM
4,CC(=O)O[C@]1(C(C)=O)CCC2C3CCC4=CC(=O)CC[C@]4(C)C3CC[C@@]21C (stereo partly drawn) [17α-Acetoxyprogesterone (6)],10 nM
5,"CC(=O)O[C@]1(C(C)=O)CCC2C3C=C(Cl)C4=CC(=O)CC[C@]4(C)C3CC[C@@]21C (stereo partly drawn) [6-Chloro-3,20-dioxopregna-4,6-diene-17α-yl acetate (9)]",19 nM
